The text below walks through data of PubChem BioAssay AID504573 (Southern Research Specialized Biocontainment Screening …, 2011).

SMILES strings stand for the structures.

One may read the CC50 as the concentration that lowers cell viability or growth by half.

The assay relates to host cell cytotoxicity, % cell control, 5% serum. Kind of assay: host cell cytotoxicity, R5 fusion assay cells, dose response, cytotoxicity control for HIV-1 antiviral lead project, CCR5-tropic fusion assay, 5% serum, set 2 (AID 504573).
For the molecule `Cc1c2c(=O)n(-c3nc4ccccc4s3)nc-2cc(O)n1Cc1cccs1`, the CC50 was 5.94 µM. The figure for `Cc1c2c(=O)n(-c3nc4ccccc4s3)nc-2cc(O)n1CCC(C)C` is 5.64 µM; for `COc1ccc(Cn2c(O)cc3nn(-c4nc5ccccc5s4)c(=O)c-3c2C)cc1` it is 5.15 µM; for `Cc1c2c(=O)n(-c3nc4ccccc4s3)nc-2cc(O)n1Cc1ccncc1` it is 5.07 µM.

On to `COc1ccccc1Cn1c(O)cc2nn(-c3nc4ccccc4s3)c(=O)c-2c1C`, for which the CC50 was 8.08 µM. The figure for `Cc1c2c(=O)n(-c3nc4ccccc4s3)nc-2cc(O)n1Cc1ccccc1Cl` is 4.34 µM; for `Cc1c2c(=O)n(-c3nc4ccccc4s3)nc-2cc(O)n1CCc1ccc(O)cc1` it is 3.74 µM; for `Cc1c2c(=O)n(-c3nc4ccccc4s3)nc-2cc(O)n1CCc1cccs1` it is 5.51 µM. Turning to `COc1ccc(CCn2c(O)cc3nn(-c4nc5ccccc5s4)c(=O)c-3c2C)cc1`, the 50% cytotoxic concentration (CC50) is 7.2 µM. Take `Cc1c2c(=O)n(-c3nc4ccccc4s3)nc-2cc(O)n1Cc1ccc(F)cc1`: the CC50 was 4.4 µM. For `Cc1c2c(=O)n(-c3nc4ccccc4s3)nc-2cc(O)n1Cc1cccnc1` the value was 3.89 µM.

Regarding `Cc1c2c(=O)n(-c3nc4ccccc4s3)nc-2cc(O)n1Cc1ccccc1`, the CC50 was 5.4 µM. Consider `Cc1c2c(=O)n(-c3nc4ccccc4s3)nc-2cc(O)n1C1CC1`, for which the CC50 was 4.98 µM.
